# Literature values as cited in patent US20240115670A1, “FIBROBLAST ACTIVATION PROTEIN MODULATION TO ALTER IMMUNE CELL MIGRATION AND TUMOR INFILTRATION” (Georgetown University, priority 2021, published 2024).
# Columns and labels:
# CAF = conditions: via downregulation of FAP; cited from earlier work
# gastric cancer = conditions: via downregulation of FAP; cited from earlier work
# [1] = test system: metastatic colorectal cancer; conditions: cited from earlier work
# [2] = test system: advanced or metastatic FAP+ cancer; conditions: cited from earlier work
# myeloma = conditions: in vivo; cited from earlier work
# [3] = test system: advanced metastatic colorectal cancer; conditions: cited from earlier work
# stage IV melanoma = conditions: cited from earlier work
# [4] = test system: syngeneic tumors derived from fibrosarcoma, lymphoma, melanoma, mastocytoma, rhabdomyosarcoma and bladder cancer cell lines; conditions: oral administration; cited from earlier work
# [5] = test system: advanced non-small cell lung cancer; conditions: cited from earlier work
# myeloma cells = conditions: coculture with osteoclasts; cited from earlier work
# colon carcinoma = conditions: combination with oxaliplatin; cited from earlier work
# [6] = test system: primitive hematopoietic progenitor cells; conditions: by increasing G-CSF, IL-6, and IL-11 from bone marrow stromal cells; cited from earlier work
# serum DPPIV = serum DPPIV (Homo sapiens, UniProt P27487); conditions: cited from earlier work
# Chain of serum DPPIV (P27487 39-766 limits assumed): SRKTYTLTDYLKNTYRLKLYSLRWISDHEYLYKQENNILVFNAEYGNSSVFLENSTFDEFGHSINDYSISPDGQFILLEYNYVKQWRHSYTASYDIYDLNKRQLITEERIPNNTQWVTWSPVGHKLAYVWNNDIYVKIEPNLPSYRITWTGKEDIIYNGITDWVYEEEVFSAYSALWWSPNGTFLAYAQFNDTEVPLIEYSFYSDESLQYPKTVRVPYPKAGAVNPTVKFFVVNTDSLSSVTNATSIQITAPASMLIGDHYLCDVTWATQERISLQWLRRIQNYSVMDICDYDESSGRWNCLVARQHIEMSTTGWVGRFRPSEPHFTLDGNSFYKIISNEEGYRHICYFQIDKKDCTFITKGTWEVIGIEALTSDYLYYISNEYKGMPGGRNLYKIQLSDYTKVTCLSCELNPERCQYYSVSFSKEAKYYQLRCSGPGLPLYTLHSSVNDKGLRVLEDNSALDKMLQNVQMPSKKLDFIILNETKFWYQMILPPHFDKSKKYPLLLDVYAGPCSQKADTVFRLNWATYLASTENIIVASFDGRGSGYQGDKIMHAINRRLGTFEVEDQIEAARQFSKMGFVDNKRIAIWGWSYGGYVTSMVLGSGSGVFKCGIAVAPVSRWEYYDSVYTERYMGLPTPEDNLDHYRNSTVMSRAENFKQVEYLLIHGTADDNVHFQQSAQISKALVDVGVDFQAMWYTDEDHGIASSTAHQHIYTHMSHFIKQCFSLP
compound,measurement,setting,value
polyphyllin,CAF proliferation in vitro,CAF,decreased
same,tumor growth in vivo,gastric cancer,decreased
sibrotuzumab: humanized monoclonal anti-FAP antibody,tolerability,[1]; in vivo,well tolerated
same,clinical activity,"[1]; phase II, trial suspended",lack of clinical activity
same,dose limiting toxicity,[2]; in vivo,one
same,clinical responses,[2]; phase I,no clinical responses
same,patients with stable disease,[2]; phase I,2/26
"CC(C)[C@H](N)C(=O)N1CCC[C@H]1B(O)O [talabostat, Talabostat]","osteoclast activity, bone resorption and tumor burden",myeloma,reduced
same,Grade 5 adverse events,"[3]; single agent trial, acute renal failure due to cytokine storm",one
same,clinical responses,[3]; single agent,no complete or partial responses
same,patients discontinuing talabostat due to side effects,stage IV melanoma; in vivo,18%
same,patients with grade 3 or 4 adverse events,stage IV melanoma; in vivo,56%
same,patients with partial response,"stage IV melanoma; with cisplatin, second-line",8.1%
same,patients with stable disease,"stage IV melanoma; with cisplatin, second-line",62.5%
same,growth of syngeneic tumors,[4],slowed growth
same,patients with adverse events resulting in death,[5]; none considered definitely or probably related to talabostat,eight
same,durable complete responses,[5]; with docetaxel,two
same,overall response rate,[5]; with docetaxel,9.1%
same,partial responses,[5]; with docetaxel,three
same,stable disease rate,[5]; with docetaxel,54%
same,myeloma cell proliferation,myeloma cells,concentration-dependent decreased
same,efficacy of oxaliplatin,colon carcinoma,enhanced
same,growth of primitive hematopoietic progenitor cells,[6],promoted growth
same,serum DPPIV inhibition,"serum DPPIV; dose of 600 ug/m2, at 24 hours",85%
same,dose-limiting toxicities,"serum DPPIV; phase I, pediatric solid tumors",No dose-limiting toxicities were observed
